Experiments:
[1] = tested on: in vitro differentiated cardiomyocytes; experiment: Survival of in vitro differentiated cardiomyocytes in embryoid bodies (GFP fluorescent area); type: cell-based, mouse; conditions: ES cell-derived cardiomyocytes, after 72 hours, fluorescent area compared with before treatment
Method: (§1) FIGS. 1-4: Effect of different vinca alkaloids (FIGS. 1-3) and doxorubicin (FIG. 4) on the viability and rate of survival of in vitro differentiated cardiomyocytes. EBs were generated and cardiac cells were differentiated as described in Example 1. Photomicrographs were taken before treatment and 48 and 72 hours after treatment. Fluorescent areas representing cardiac cells were measured and calculated as described in Example 2 and 3. Cor.At refers to in vitro differentiated cardiomyocytes and MEF to Mouse Embryonic Fibroblasts.
The generation of “embryoid bodies” (EBs) from high density cell suspensions and differentiation of cardiac cells was essentially performed as described in Example 1 of international application WO2005/005621, the disclosure content of which is hereby incorporated by reference in its entirety. Briefly, mouse embryonic stem cells (ES cells, clone D3, ATCC CRL 1934) were stably transfected with the paMHC-GFP vector containing the gene of the green fluorescent protein under control of the cardiac α-myosin heavy chain (α-MHC) promotor. To obtain this vector, a 5.5 kb fragment containing the promoter region of the mouse α-myosin heavy chain gene (Genbank 471441) was introduced into the polylinker of the pEGFP-1 vector (Clontech Laboratories). […]
To generate EBs, ES cells were cultured in suspension at a density of 2×10^6 cells/ml in a 6 cm petri dish (Greiner, Darmstadt, Germany) in 4 ml IMDM with 20% FCS (Invitrogen, Karlsruhe, Germany) at 37° C., 5% CO2, 95% humidity on a rocking table (GFL 3006, GFL, Braunschweig, Germany) at 50 rpm for 6 hours. […] On day 14, fluorescent areas representing cardiac cells were detected by fluorescence microscopy using a Zeiss Axiovert 200M with a 10x Achroplan objective, a HQ-filterset for GFP (AF Analysentechnik, Tubingen, Germany) and a Sensicam 12 bit cooled imaging system (PCO Imaging, Kelheim, Germany). […]

[2] = tested on: in vitro differentiated cardiomyocytes; experiment: Cardiotoxic effect of doxorubicin on in vitro differentiated cardiomyocytes; type: cell-based, mouse; conditions: according to Example 4 of WO2005/005621, FIG. 4
Method: as §1
Thereafter, Example 2, supra, is modified in that doxorubin (doxorubicinhydrochlorid) together with vinblastin, vincristin or vinorelbin is added at different concentrations and reversed dilution series to the cell culture.

With `CCC1=C[C@@H]2CN(C1)Cc1c([nH]c3ccccc13)[C@@](C(=O)OC)(c1cc3c(cc1OC)N(C)[C@H]1[C@@](O)(C(=O)OC)[C@H](OC(C)=O)[C@]4(CC)C=CCN5CC[C@]31[C@@H]54)C2` [vinorelbin] the “survival of in vitro differentiated cardiomyocytes” value [1] was “increase survival”.
For `COc1cccc2c1C(=O)c1c(O)c3c(c(O)c1C2=O)C[C@@](O)(C(=O)CO)C[C@@H]3O[C@H]1C[C@H](N)[C@H](O)[C@H](C)O1` [doxorubicin], the “cardiotoxic effect on cardiomyocytes” value [2] was “cardiotoxic effect”.
`CC[C@]1(O)C[C@H]2CN(CCc3c([nH]c4ccccc34)[C@@](C(=O)OC)(c3cc4c(cc3OC)N(C=O)[C@H]3[C@@](O)(C(=O)OC)[C@H](OC(C)=O)[C@]5(CC)C=CCN6CC[C@]43[C@@H]65)C2)C1` [vincristin] was tested, and the “survival of in vitro differentiated cardiomyocytes” value [1] was “increase survival”.
In the case of `CC[C@]1(O)C[C@@H]2CN(CCc3c([nH]c4ccccc34)[C@@](C(=O)OC)(c3cc4c(cc3OC)N(C)[C@H]3[C@@](O)(C(=O)OC)[C@H](OC(C)=O)[C@]5(CC)C=CCN6CC[C@]43[C@@H]65)C2)C1` [vinblastin], the “survival of in vitro differentiated cardiomyocytes” value [1] is reported as “increase survival”.

— patent US20110081325A1, “NOVEL TREATMENT OF HEART DISEASES” (Axiogenesis AG, priority 2008, published 2011)
